Molecules are shown by their SMILES.

The experiment concerns the target T1, Zcchc11 enzyme (Homo sapiens, UniProt Q5TAX3).
T1 construct: made in house; host or cells: HEK293 cells (Zcchc11); E. coli Rosetta II (LIN28A)
T1 sequence (Q5TAX3 212-1420): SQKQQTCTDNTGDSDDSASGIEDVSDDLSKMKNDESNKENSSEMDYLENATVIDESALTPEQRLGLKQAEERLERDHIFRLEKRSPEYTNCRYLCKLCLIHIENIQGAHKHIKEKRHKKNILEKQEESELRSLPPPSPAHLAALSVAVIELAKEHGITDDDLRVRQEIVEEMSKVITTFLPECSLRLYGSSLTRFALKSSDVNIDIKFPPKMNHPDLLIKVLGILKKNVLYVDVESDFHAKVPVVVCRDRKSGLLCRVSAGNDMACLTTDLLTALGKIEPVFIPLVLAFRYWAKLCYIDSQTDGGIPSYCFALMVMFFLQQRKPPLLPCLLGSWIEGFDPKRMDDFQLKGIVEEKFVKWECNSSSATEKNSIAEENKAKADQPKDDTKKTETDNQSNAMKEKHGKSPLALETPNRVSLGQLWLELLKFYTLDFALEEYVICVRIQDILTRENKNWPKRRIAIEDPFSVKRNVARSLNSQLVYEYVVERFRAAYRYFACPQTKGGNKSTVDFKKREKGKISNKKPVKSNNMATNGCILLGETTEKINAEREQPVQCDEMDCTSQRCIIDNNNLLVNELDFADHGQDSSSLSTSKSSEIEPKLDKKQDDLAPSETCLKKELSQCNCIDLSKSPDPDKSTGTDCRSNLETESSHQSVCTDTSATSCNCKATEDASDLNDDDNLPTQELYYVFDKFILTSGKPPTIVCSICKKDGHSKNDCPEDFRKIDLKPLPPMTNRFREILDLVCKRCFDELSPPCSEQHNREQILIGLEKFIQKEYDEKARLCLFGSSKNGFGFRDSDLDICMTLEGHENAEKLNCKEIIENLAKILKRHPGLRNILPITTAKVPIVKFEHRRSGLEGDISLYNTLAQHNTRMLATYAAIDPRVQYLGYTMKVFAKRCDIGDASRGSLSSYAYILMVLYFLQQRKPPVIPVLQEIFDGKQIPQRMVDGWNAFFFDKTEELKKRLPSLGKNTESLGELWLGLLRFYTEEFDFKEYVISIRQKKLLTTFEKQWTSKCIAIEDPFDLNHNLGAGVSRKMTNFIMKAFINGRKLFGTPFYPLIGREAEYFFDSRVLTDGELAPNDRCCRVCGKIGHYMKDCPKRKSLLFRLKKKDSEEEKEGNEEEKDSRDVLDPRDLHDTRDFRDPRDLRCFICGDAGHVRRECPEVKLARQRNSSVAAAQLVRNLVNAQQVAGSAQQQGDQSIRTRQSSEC
The experiment is described as follows: TUTase assay (Zcchc11 assay, Lin28a-dependent polyuridylation of pre-let-7). The class given is biochemical. The following applies: Lin28a-dependent Zcchc11 (Z11) TUTase assay; read-out: Potency Lin28a-dep Z11 IC50. The method in brief: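 Potency is measured as inhibition of LIN28A-driven U-tail addition to 2 nM pre-let-7 by 0.2 nM HEK293-derived Zcchc11 fragment with 5 uM UTP at room temperature. Tail growth appears as fluorescein quenching by an annealing rhodamine-A20 probe.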

Consider `Cc1cccnc1OC[C@H]1CCCN1c1cc2c(cc1Cl)c(=O)c(C(=O)O)cn2C1(C)CCCC1` [Example 457, (R)-6-chloro-1-(1-methylcyclo-pentyl)-7-(2-(((3-methylpyridin-2-yl)oxy)methyl)pyrrolidin-1-yl)-4-oxo-1,4-dihydroquinoline-3-carboxylic acid], for which the 50% inhibitory concentration (IC50) was at most 1 µM.
Consider `Cc1cccnc1OC[C@H]1CCCN1c1cc2c(cc1Cl)c(=O)c(C(=O)O)cn2C1CN(C)C1` [Example 458, (R)-6-chloro-1-(1-methylazetidin-3-yl)-7-(2-(((3-methylpyridin-2-yl)oxy)methyl)pyrrolidin-1-yl)-4-oxo-1,4-dihydroquinoline-3-carboxylic acid], for which the half-maximal inhibitory concentration (IC50) lay in the range of 1 to 10 µM.
Take `Cc1cccnc1OC[C@H]1CCCN1c1cc2c(cc1Cl)c(=O)c(C(=O)O)cn2C1(C)CCOCC1` [Example 459, (R)-6-chloro-7-(2-(((3-methylpyridin-2-yl)oxy)methyl)pyrrolidin-1-yl)-1-(4-methyltetra-hydro-2H-pyran-4-yl)-4-oxo-1,4-dihydroquinoline-3-carboxylic acid]: the IC50 was 1 to 10 µM.
Turning to `Cc1cccnc1OC[C@H]1CCCN1c1cc2c(cc1Cl)c(=O)c(C(=O)O)cn2C1(C)CC1` [Example 460, (R)-6-chloro-1-(1-methylcyclo-propyl)-7-(2-(((3-methylpyridin-2-yl)oxy)methyl)pyrrolidin-1-yl)-4-oxo-1,4-dihydroquinoline-3-carboxylic acid], the IC50 is at most 1 µM.
`CN1CCC(n2cc(C(=O)O)c(=O)c3cc(Cl)c(N4CCC[C@@H]4COc4ncccc4Cl)cc32)C1` (stereo partly drawn) [Example 461, 6-chloro-7-((R)-2-(((3-chloropyridin-2-yl)oxy)methyl)pyrrolidin-1-yl)-1-(1-methyl-pyrrolidin-3-yl)-4-oxo-1,4-dihydroquinoline-3-carboxylic acid]: the IC50 lay within 1 to 10 µM.
Regarding `CN1CCC(n2cc(C(=O)O)c(=O)c3cc(Cl)c(N4CCC[C@@H]4COc4ncccc4Cl)cc32)CC1` [Example 462, (R)-6-chloro-7-(2-(((3-chloropyridin-2-yl)oxy)methyl)pyrrolidin-1-yl)-1-(1-methyl-piperidin-4-yl)-4-oxo-1,4-dihydro-quinoline-3-carboxylic acid], the IC50 was in the range of 1 to 10 µM.
For `COCCN1CCC(n2cc(C(=O)O)c(=O)c3cc(Cl)c(N4CCC[C@@H]4COc4ncccc4Cl)cc32)CC1` [Example 463, (R)-6-chloro-7-(2-(((3-chloropyridin-2-yl)oxy)methyl)pyrrolidin-1-yl)-1-(1-(2-methoxy-ethyl)piperidin-4-yl)-4-oxo-1,4-dihydroquinoline-3-carboxylic acid], the half-inhibitory concentration (IC50) fell in the range of 1 to 10 µM.
Consider `CN(C)C1CN(c2ccc(-n3cc(C(=O)O)c(=O)c4cc(Cl)c(N5C[C@@H](F)C[C@@H]5COc5ncccc5Cl)cc43)cn2)C1` [Example 464, 6-chloro-7-((2R,4S)-2-(((3-chloropyridin-2-yl)oxy)methyl)-4-fluoropyrrolidin-1-yl)-1-(6-(3-(dimethylamino)azetidin-1-yl)pyridin-3-yl)-4-oxo-1,4-dihydroquinoline-3-carboxylic acid], for which the 50% inhibitory concentration (IC50) was at most 1 µM.
As for `CN(C)C1CN(c2ccc(-n3cc(C(=O)O)c(=O)c4cc(F)c(N5C[C@@H](F)C[C@@H]5COc5ncccc5F)cc43)cn2)C1` [Example 465, 1-(6-(3-(dimethylamino)azetidin-1-yl)pyridin-3-yl)-6-fluoro-7-((2R,4S)-4-fluoro-2-(((3-fluoropyridin-2-yl)oxy)methyl)pyrrolidin-1-yl)-4-oxo-1,4-dihydroquinoline-3-carboxylic acid], the IC50 was at most 1 µM.
As for `CN(C)C1CN(c2ccc(-n3cc(C(=O)O)c(=O)c4cc(Cl)c(N5C[C@@H](F)C[C@@H]5COc5ncccc5F)cc43)cn2)C1` [Example 466, 6-chloro-1-(6-(3-(dimethylamino)azetidin-1-yl)pyridin-3-yl)-7-((2R,4S)-4-fluoro-2-(((3-fluoropyridin-2-yl)oxy)methyl)pyrrolidin-1-yl)-4-oxo-1,4-dihydroquinoline-3-carboxylic acid], the IC50 is at most 1 µM.
On to `Cc1cc2c(=O)c(C(=O)O)cn(-c3ccc(N4CC(N(C)C)C4)nc3)c2cc1N1C[C@@H](F)C[C@@H]1COc1ncccc1Cl` [Example 467, 7-((2R,4S)-2-(((3-chloropyridin-2-yl)oxy)methyl)-4-fluoropyrrolidin-1-yl)-1-(6-(3-(dimethylamino)azetidin-1-yl)pyridin-3-yl)-6-methyl-4-oxo-1,4-dihydroquinoline-3-carboxylic acid], for which the IC50 is at most 1 µM.
As for `O=C(O)c1cn(-c2cnccn2)c2cc(N3C[C@@H](F)C[C@H]3COc3ncccc3Cl)c(Cl)cc2c1=O` [Example 468, 6-chloro-7-[(2S,4S)-2-{[(3-chloropyridin-2-yl)oxy]methyl}-4-fluoropyrrolidin-1-yl]-4-oxo-1-(pyrazin-2-yl)-1,4-dihydroquinoline-3-carboxylic acid], the half-inhibitory concentration (IC50) lay in the range of 10 to 50 µM.
For `O=C(O)c1cn(C2CCc3nccn3C2)c2cc(N3CCC[C@@H]3COc3ncccc3Cl)c(Cl)cc2c1=O` (stereo partly drawn) [Example 469, 6-chloro-7-((R)-2-(((3-chloropyridin-2-yl)oxy)methyl)pyrrolidin-1-yl)-4-oxo-1-(5,6,7,8-tetrahydroimidazo [1,2-a]pyridin-6-yl)-1,4-dihydroquinoline-3-carboxylic acid] the value was at most 1 µM; for `COCCN1CC(n2cc(C(=O)O)c(=O)c3cc(Cl)c(N4CCC[C@@H]4COc4ncccc4Cl)cc32)C1` [Example 470, (R)-6-chloro-7-(2-(((3-chloropyridin-2-yl)oxy)methyl)pyrrolidin-1-yl)-1-(1-(2-methoxy-ethyl)azetidin-3-yl)-1-(1-(2-methoxyethyl)azetidin-3-yl)-4-oxo-1,4-dihydroquinoline-3-carboxylic acid], 1 to 10 µM.
With `NC1CC(n2cc(C(=O)O)c(=O)c3cc(Cl)c(N4CCC[C@@H]4COc4ncccc4Cl)cc32)C1` (stereo partly drawn) [Example 471, (R)-1-(3-aminocyclobutyl)-6-chloro-7-(2-(((3-chloropyridin-2-yl)oxy)methyl)pyrrolidin-1-yl)-4-oxo-1,4-dihydroquinoline-3-carboxylic acid] the figure was 1 to 10 µM; with `O=C(O)c1cn(-c2ccc(NS(=O)(=O)C3CC3)cc2)c2cc(N3CCC[C@@H]3COc3ncccc3Cl)c(Cl)cc2c1=O` [Example 472, 6-chloro-7-[(2R)-2-{[(3-chloropyridin-2-yl)oxy)methyl}pyrrolidin-1-yl]-1-(4-cyclopropane-sulfonamido-phenyl)-4-oxo-1,4-dihydroquinoline-3-carboxylic acid], at most 1 µM.
Take `Nc1cc(-n2cc(C(=O)O)c(=O)c3cc(Cl)c(N4CCC[C@@H]4COc4ncccc4Cl)cc32)ccn1` [Example 473, (R)-1-(2-aminopyridin-4-yl)-6-chloro-7-(2-(((3-chloropyridin-2-yl)oxy)methyl)pyrrolidin-1-yl)-4-oxo-1,4-dihydroquinoline-3-carboxylic acid]: the IC50 is at most 1 µM.
Turning to `O=C(O)c1cn(-c2cc3cn[nH]c3cn2)c2cc(N3CCC[C@@H]3COc3ncccc3Cl)c(Cl)cc2c1=O` [Example 474, (R)-6-chloro-7-(2-(((3-chloropyridin-2-yl)oxy)methyl)pyrrolidin-1-yl)-4-oxo-1-(1H-pyrazolo[3,4-c]pyridin-5-yl)-1,4-dihydroquinoline-3-carboxylic acid], the IC50 is at most 1 µM.
With `O=C(O)c1cn(-c2cnc3[nH]ncc3c2)c2cc(N3CCC[C@@H]3COc3ncccc3Cl)c(Cl)cc2c1=O` [Example 475, (R)-6-chloro-7-(2-(((3-chloropyridin-2-yl)oxy)methyl)pyrrolidin-1-yl)-4-oxo-1-(1H-pyrazolo[3,4-b]pyridin-5-yl)-1,4-dihydroquinoline-3-carboxylic acid] the figure was at most 1 µM; with `CN(C)C1CN(c2ccc(-n3cc(C(=O)O)c(=O)c4cc(Cl)c(N5CCC[C@@H]5COc5ncccc5Cl)cc43)cn2)C1` [Example 476, (R)-6-chloro-7-(2-(((3-chloropyridin-2-yl)oxy)methyl)pyrrolidin-1-yl)-1-(6-(3-(dimethyl-amino)azetidin-1-yl)pyridin-3-yl)-4-oxo-1,4-dihydroquinoline-3-carboxylic acid], at most 1 µM.

By IC50 is commonly meant the concentration needed to halve the response being measured.
